Experimental findings from patent US6852333B1, “Agents and methods for promoting production gains in animals” (The Horticulture and Food Research Institute of New Zealand …, priority 1999, dated 2005) are described below.

Assay [1] can be described thus: Reproductive success of ewes (Experiment 11). Format: in vivo, sheep. Particulars: over 3 seasons following original metyrapone treatments, vs control group. The text has this:
Female sheep (20 ewes) chosen from original experiments in experiments 4, 5 and 6 were studied for seasonal reproductive success for up to 3 seasons following the original metyrapone treatments. These animals received no further metyrapone treatments and were kept in a flock with a similar selected group of 20 control age and weight matched counterparts that had not received metyrapone treatment.
In a separate experiment using the different sheep with no previous exposure to treatments, 20 age and bodyweight matched ewes were run as a flock. Ten of these ewes received three treatments of metyrapone and vitamin C, isoleucine, leucine and valine at a dosage of 0.001 g metyrapone/0.01 g vitamin c, 0.0005 g each of valine, isoleucine and leucine per kg liveweight in an oral form without anthelmintics. These three treatments occurred one month prior to conception, in the first and third trimester of pregnancy. The remaining ten ewes received a similar handling and control administration of a glucose-amino acid mixture.

A short description of assay [2]: Dose response and dose composition, growth promotant effects (Experiment 9). The class given is in vivo, sheep, poultry, pigs and rats. To be noted: oral three times over six weeks. Here is the method:
(§1) In four different species (sheep, poultry, pigs and rats) different dosages of the compound metyrapone alone or in combination with vitamin C, isoleucine, leucine, valine were tested for growth promotant effects.
(§2) These mixtures were administered by oral routes three times over six weeks and a control group was administered a glucose mix at the same time (calorie equivalent). Animal growth in terms of liveweight gains were measured over periods of time, as was feed consumed.

Assay [3] in a line: Dose response of metyrapone, growth promotant effects in pigs (Experiment 9). To be noted: oral three times over six weeks. Format: in vivo. The procedure:
as §1, §2

Assay [4] deals with faecal count (parasites). Briefly: Increase of anthelmintic effect, monthly faecal count (Experiment 10). To be noted: anthelmintics and agents given every four months; faecal count each month. Format: in vivo, sheep. The procedure: In a further experiment similar to that described in experiments 3 and 4 the increased anthelmintic effect from vitamin C, isoleucine, valine and leucine alone or in combination with metyrapone, and metyrapone and pyrrolopyrimidine was tested. Anthelmintics and these agents were given every four months and faecal count calculated each month in between treatments.

Assay [5] can be described thus: Growth rate of sheep given metyrapone with anthelmintic treatment (Experiments 3 and 6). Format: in vivo. Particulars: no additional stresses; metyrapone 5 mg/kg at the time of anthelmintic treatment. An excerpt: In a first series of experiments, sheep were divided into pairs from initial twins. All the animals were grazed together, on the same paddocks, from pairing through to the end of the trial. They were thus exposed to the same potential parasite load and the same access to feed and water. The animals were also genetically similar (i.e at least one shared parent). Experiments were begun when the animal was 3 months of age. One half of the pairings were rounded up once a week and run through a race (control group). Any normal farm maintenance that was needed was done at this time, so that the time that animals may have been held was variable from week to week but consistent across the entire group and with the experimental group (see below). Faecal samples were also collected and both total egg and nematode egg counts calculated, and visual inspection for ectoparasites made. Animals were subject to the same anthelmintic treatments consisting of three pour-on (Ivomec pour on, MSD 1 ml per 50 kg), three oral (Endex, Novartis—1 ml per 5 kg) and three injectable treatments (levamisole. 7.5 mg/kg) per year (every four months). In a similar set of experiments to experiment 1, the animals in the chronic stress group also all received a chemical substance metyrapone (in an oral form at 5 mg/kg live weight) at the time of anthelmintic treatment. […]

Assay [6] is described as follows: Stress relieving compounds given with anthelmintic, growth of ewes over 12 months (Experiment 13). Format: in vivo, sheep. To be noted: for effect on growth compared to control animals (FIG. 20): ewes treated every 2 months with anthelmintic plus agent; for effect on growth: alone or added to metyrapone. The procedure: […] A further 7 ewes received either astressin 0.0005 g or astressin and metyrapone (astressin at 0.0005 g and metyrapone at 0.001 g) and the vitamin C and amino acid mixture as above.
Bodyweight was measured monthly and animals were treated equivalently in all other aspects.

The subject of assay [7] is nematode. Briefly: Anthelmintic efficacy (faecal egg / nematode counts) in stressed sheep given metyrapone (Experiments 3-5). Format: in vivo. An excerpt:
In a first series of experiments, sheep were divided into pairs from initial twins. All the animals were grazed together, on the same paddocks, from pairing through to the end of the trial. They were thus exposed to the same potential parasite load and the same access to feed and water. The animals were also genetically similar (i.e at least one shared parent). Experiments were begun when the animal was 3 months of age. One half of the pairings were rounded up once a week and run through a race (control group). Any normal farm maintenance that was needed was done at this time, so that the time that animals may have been held was variable from week to week but consistent across the entire group and with the experimental group (see below). Faecal samples were also collected and both total egg and nematode egg counts calculated, and visual inspection for ectoparasites made. The other half of the pairings (chronic stress group) were exposed to the same handling […] (consistent with the single weekly procedure above) and in addition to this were run around a paddock by either a human or dog (alternating) for 10 minutes. In this manner a mild, chronic, handling stress was imposed on these animals. Races and handling facilities were cleaned between animal movements to avoid any risk of parasitic contamination. Animals were subject to the same anthelmintic treatments consisting of three pour-on (Ivomec pour on, MSD 1 ml per 50 kg), three oral (Endex, Novartis—1 ml per 5 kg) and three injectable treatments (levamisole. 7.5 mg/kg) per year (every four months). In a similar parallel experiment the control group was identical and the paired group to this control (acute stress) received identical treatment to the control group and in addition an acute stress one day prior to anthelmintic treatment. This consisted of chasing the group three times during the day with a dog for 15 min duration each time. The faecal egg count and ectoparasite assessment was the same in both groups at time of the first experimental anthelmintic treatment. […]

The nature of assay [8]: Broiler chicken trial: weight and feed conversion ratio with SAC in feed (Experiment 7). Format: in vivo, broiler chickens. An excerpt:
This work aimed to investigate the effectiveness of an antistress containing composition or a stress alleviating composition (conveniently referred to as “SAC”), ([…], vitamin C and long chain amino acid mix) versus a calorie adjusted control, in lowering the physiological responses to stress and promoting growth in an intensive production systems (broiler chickens). In addition, the effect of the SAC agent in combination with existing industry feed additives (Performance enhancers: antibiotics and indigestible carbohydrates (oligosaccharides) was investigated in broiler chickens.
432 day-old male broiler chicks were used in the experiment carried out over six weeks in a poultry research unit. Chicks were assigned at random to one of 12 groups: • Group 1—Control 32° C. (n=36) • Group 2—Control 28° C. (n=36) • Group 3—Experimental Formulation A 32° C. (n=36) • Group 4—Experimental Formulation A 28° C. (n=36) • Group 5—Experimental Formulation B 28° C. (n=36) • Group 6—Experimental Formulation C 28° C. (n=36) • Group 7—Performance Enhancer 32° C. (n=36) • Group 8—Performance Enhancer 28° C. (n=36) • Group 9—Oligosaccharide 32° C. (n=36) • Group 10—Oligosaccharide 28° C. (n=36) • Group 11—Experimental Formulation A+Performance Enhancer 32° C. (n=36) • Group 12—Experimental Formulation A+Oligosaccharide 32C (n=36)
Once selected, groups of 6 birds were housed per cage in heated brooders (i.e. One treatment group (36 birds) per 6 cages). Each group had access to pelleted feed (NRM New Zealand) in excess of requirements during the trial conforming to standard poultry use Ross broiler specification), and water was freely available. During the manufacturing of the feed the following treatments were included.
SAC Agent (2-methyl-1,2-di-3-pyridyl-1-propanone, vitamin C, valine, isoleucine and leucine mixture), mixed with a glucose-based polymer carrier (0.01 g drug to 1 g of carrier) before addition to the feed in the following doses. • Formulation A (per kg feed): • 0.01 g 2-methyl-1,2-di-3-pyridyl-1-propanone • 0.1 g Vitamin C • 5 mg Valine, isoleucine and leucine • Formulation B (per kg feed): • 0.005 g 2-methyl-1,2-di-3-pyridyl-1-propanone • 0.05 g Vitamin C • 0.5 mg Valine, isoleucine and leucine • Formulation C (per kg feed): • 0.001 g 2-methyl-1,2-di-3-pyridyl-1-propanone • 0.01 g Vitamin C • 0.1 mg Valine, isolcucine and leucine • Performance Enhancers: • (Avilamycin (Surmax): Elanco Animal Health, Indianapolis, USA) • Dose: <0.2 g/kg (antibiotic concentration of 0.1 (g/ml). • Mannan oligosaccharide—indigestible carbohydrate (Bio-Mos: Alltech, Inc.USA) • Dose: 1 g/kg
Daily feed intake was recorded for each group of birds, and all birds were weighed weekly.
Birds were either kept at optimum temperature levels (32° C.) or exposed to cold stress (28° C.) from day 1 until day 14 of the trial. After 14 days they were removed to larger raised horizontal cages where all groups were maintained at 21° C. The birds remained in these cages for the remainder of the trial after which time they were slaughtered. After slaughter, meat from 6 birds per group was analysed for fat composition.

Setting [9] is: week 2, end of the cold stress period 28° C.
Setting [10] is: week 3, after the stressor was removed (21° C.).
Where [11] appears, read: week 4, after the stressor was removed (21° C.).

On to `CC(C)(C(=O)c1cccnc1)c1cccnc1` [metyrapone, 2-methyl-1,2-di-3-pyridyl-1-propanone], for which the birthweight of lambs result in assay [1] was “slightly greater than seen in the control group”. Besides, in assay [2] (all species except pigs), the “% gain in production with increase in dose” value was “an increase in gain was seen with an increase in dose of metyrapone levelling out”. Also, the “growth (liveweight gain)” value in assay [2] (all species) is given as “increased growth”. In addition, the “% gain in production with dose” value in assay [3] is “a low and a high dose were effective however a mid-range dose did not produce the same gains”. For the same compound, the “anthelmintic effectiveness (faecal count)” value in assay [4] was “more effective than with the anthelmintic alone”. Moreover, the “net gain, growth over the year (mean)” value in assay [5] came out at 18 kg. The “Kg of Growth in 12 months” value in assay [6] (0.0001 g/kg metyrapone) turned out to be 13 ± 3 kg; in assay [6] (0.0001 g/kg metyrapone + control), 14 ± 3 kg. Besides, the “effect on growth compared to control animals (FIG. 20)” value in assay [6] was “larger effect”. In assay [7] (acute stress group receiving metyrapone oral 5 mg/kg with anthelmintic), the “differences between acute stress and control groups” value was “no differences were seen between the acute and control groups”. The “efficacy of anthelmintics compared with the non-stressed groups” value in assay [7] (chronic stress group, metyrapone oral 5 mg/kg live weight at the time of anthelmintic treatment) was “same efficacy of anthelmintics as the non-stressed groups”. Besides, the “time until nematode counts exceeded recommended number for dosing” value in assay [7] (one treatment including metyrapone, chronic and acute stressed animals vs control group) was “no differences to the control group”.

Take astressin: the “Kg of Growth in 12 months” value in assay [6] (0.0005 g/kg astressin) came to 10 ± 4 kg.

Take `CCCN(CCC)C(=O)C(CCC(=O)O)NC(=O)c1ccccc1` (stereo not shown) [proglumide]: the “effect on growth compared to control animals (FIG. 20)” value in assay [6] is recorded as “small positive effect”.

Regarding `COC[C@H]1O[C@@H](OC2OC[C@@H]3O[C@]4(O[C@H]3[C@H]2OC(=O)C(C)C)O[C@H](C)[C@@](O)(C(C)=O)[C@@H]2OCO[C@H]24)[C@@H](OC)[C@@H](O)[C@@H]1O[C@@H]1O[C@H](C)[C@H](OC)[C@H](O[C@H]2C[C@@]3(C)OC4(C[C@@H](O)[C@H](O[C@H]5C[C@@H](O)[C@H](OC(=O)c6c(C)c(Cl)c(O)c(Cl)c6OC)[C@@H](C)O5)[C@@H](C)O4)O[C@@H]3[C@@H](C)O2)[C@H]1O` (stereo partly shown) [antibiotic performance enhancer, Avilamycin], the “rate of growth in comparison to birds given the SAC” value in assay [8] (exposed to cold stress, during cold stress and afterwards) is “lower rate of growth”. Besides, the “weight heavier than control birds” value in assay [8] (week 1, cold stress 28° C.) is listed as 3.5 g; in assay [8] (setting [9]) it was 6.3 g; in assay [8] (setting [10]) it was 42.6 g; in assay [8] (setting [11]), 35.2 g. Also, the “weight heavier than control birds, percent” value in assay [8] (week 1, cold stress 28° C.) was 2.0%; in assay [8] (setting [9]) it was 1.3%; in assay [8] (setting [10]), 4.5%; in assay [8] (setting [11]) it was 2.2%.

On to `CC#C[C@]1(O)CC[C@H]2[C@@H]3CCC4=CC(=O)CCC4=C3[C@@H](c3ccc(N(C)C)cc3)C[C@@]21C` [mifepristone], for which the “Kg of Growth in 12 months” value in assay [6] (0.0001 g/kg mifepristone) was determined as 4 ± 4 kg; in assay [6] (0.0005 g/kg mifepristone), 8 ± 2 kg. The “effect on growth compared to control animals (FIG. 20)” value in assay [6] was “small positive effect”. Also, the results for the effect on growth result in assay [6] (mifepristone dose 0.0001 g/kg) and in assay [6] (mifepristone dose 0.0005 g/kg) were “no effect compared to control” and “small increase in growth over control treatments”, respectively.
